Measured values from US20080249075A1, “C11 Modified Retrosteroids as Progesterone Receptor Modulator Compounds” (Solvay Pharmaceuticals GmbH, priority 2007, published 2008).

Legend:
[1] = test system: T47D human breast carcinoma cells; assay: cells; format: cell-based; details: for PS [100 nM] (% stimulation): agonistic mode, alkaline phosphatase induction (100% = 1 nM Dydrogesterone); for PS [100 nM] (% stimulation) / PI [100 nM] (% inhibition): compound 100 nM; for PI [100 nM] (% inhibition): antagonistic mode, inhibition of alkaline phosphatase induction by 1 nM Dydrogesterone; for pIC50: antagonistic potency against 1 nM Dydrogesterone; for activation at 0.1 µM / inhibition at 0.1 µM / IC50 / EC50: Homo sapiens, T47D; for activation at 0.1 µM: 48 h, read-out: PS [100 nM] (% stimulation); for inhibition at 0.1 µM: read-out: PI [100 nM] (% inhibition); for IC50: read-out: pIC50 (converted); for EC50: read-out: pEC50 (converted)
Description: The progesterone-dependent modulation of alkaline phosphatase expression was examined using T47D human breast carcinoma cells [Keydar et al., 1979]. The assay was performed as previously described by Di Lorenzo et al. (1991) with the modification of using Dydrogesterone as comparative progestin to determine the antagonistic and agonistic activity.
The cell line was purchased from CLS Cell Lines Service (Hildastrasse 21, D-69214 Eppelheim, Germany). In brief, the cells were plated in 96-well plates at 40,000 cells/well using the following growth medium: RPMI 1640 with: 10% FBS, 1 mM Sodium Pyruvat MEM, 10 mM Hepes, 0.01 mg/ml Bovine insulin, and 25 μg/ml Gentamycin. After 24 h of cultivation, the growth medium was replaced with medium containing 2% fetal bovine serum and the test compounds were added to each well to achieve the appropriate compound concentration: For determination of agonistic activity only the test compounds were added; for measurement of antagonistic activity the test compounds and additionally Dydrogesterone as standard progesterone agonist was added to a final concentration of 1 nM. After 48 h of cultivation, the medium was removed and the cells were washed with 200 μl of Dulbecco's phosphate-buffered saline without calcium and magnesium (PBS(−)). Then the cells were fixed with 3.7% formaldehyde in phosphate-buffered saline for 15 min at 22° C. After washing the cells with PBS, 100 μl of a […] (pNPP) solution (pNPP Liquid Substrate System; Sigma) was added to each well and incubated for 2 h at room temperature protected from light. The reaction was stopped with 100 μl 1N NaOH and the absorbance was measured with a spectrophotometer (Victor, Perkin Elmer) at 405 nm. The results are expressed as alkaline phosphatase induction (as 100% with 1 nM Dydrogesterone) or inhibition (against alkaline phosphatase induction by 1 nM Dydrogesterone) at a certain concentration of test compound.
% stimulation=(effect compound−basal)/(effect dydro 1 nM−basal)*100% inhibition of 1 nM Dydro=100*{1-[(effect compound−basal)/(effect dydro 1 nM−basal)]}
For each compound the % inhibition (PI) and % stimulation (PS), respectively, at a compound concentration of 100 nM was determined. For selected compounds, the corresponding values were measured for several different concentrations, and subsequently were plotted against the concentration of the test compound, and used to calculate the IC50 value (for the antagonistic potency; the IC50 value is the concentration (nM), required to reduce the maximal response by 50%) and EC50 values (for the agonistic potency; the EC50 value is the effective concentration (nM) that produced 50% of the maximum response), respectively.

[2] = molecular target: T1, human progesterone receptor (Homo sapiens, UniProt P06401); assay: Progesterone receptor binding assay, human PR (CEREP); details: 3H-R5020 as ligand, MCF7 cells as source of PR; for Ki: read-out: Human PR binding (pKi) (converted)
T1 sequence (P06401 679-933 limits assumed): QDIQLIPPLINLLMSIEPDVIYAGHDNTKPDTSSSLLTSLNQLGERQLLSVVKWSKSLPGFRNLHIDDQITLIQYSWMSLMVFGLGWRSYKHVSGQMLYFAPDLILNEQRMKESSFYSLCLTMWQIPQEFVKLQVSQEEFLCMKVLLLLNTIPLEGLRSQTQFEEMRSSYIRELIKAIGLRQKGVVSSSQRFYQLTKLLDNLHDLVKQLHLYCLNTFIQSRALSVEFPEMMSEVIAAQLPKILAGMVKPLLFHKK
Description: The progesterone receptor (PR) binding assays were performed at CEREP (Celle I'Evescault, France).
The binding to the human progesterone receptor (Assay Cat No: Progesterone receptor-814h) was be measured using 3H-R5020 as ligand and MCF7 cells as the source of progesterone receptor. The assay is performed as described by Eckert & Katzenellenbogen [1982]. The binding to the bovine progesterone receptor (Assay Cat No: Progesterone receptor-814) was measured using 3H-R5020 as ligand and uterus tissue as the source of progesterone receptor. The assay was performed as described by Hurd & Moudgil [1988].
The results of the receptor binding assay are presented as the individual pKi values, which were determined by measuring the binding activity to the human or bovine PR, as indicated, for a concentration range of each compound.

Compound	Ki [2] [nM]	activation at 0.1 µM [1] [%]	inhibition at 0.1 µM [1] [%]	IC50 [1] [nM]	other results
CC(=O)[C@H]1CC[C@H]2[C@@H]3C=CC4=CC(=O)CC[C@@]4(C)[C@@H]3C(OC(=O)Nc3ccc4c(c3)NC(=O)C(C)S4)C[C@]12C (some centres unmarked) [compound 102, (2-Methyl-3-oxo-3,4-dihydro-2H-benzo[1,4]thiazin-6-yl)-carbamic acid dydrogesterone-11-yl ester]					PS [100 nM] (% stimulation) ([1]; T47D cells): 0.0%; PI [100 nM] (% inhibition) ([1]; T47D cells): 98.0%; pIC50 ([1]; T47D cells): 8.1; Human PR binding (pKi) [2]: 6.3
CC(=O)[C@H]1CC[C@H]2[C@@H]3C=CC4=CC(=O)CC[C@@]4(C)[C@@H]3[C@@H](OC(=O)NCc3cccc(F)c3)C[C@]12C [compound 78, (3-Fluoro-benzyl)-carbamic aciddydrogesterone-11-yl ester]	398				
CC(=O)[C@H]1CC[C@H]2[C@@H]3C=CC4=CC(=O)CC[C@@]4(C)[C@@H]3[C@@H](OC(=O)Nc3ccc4c(=O)cc(C)oc4c3)C[C@]12C [compound 77, (2-Methyl-4-oxo-4H-chromen-7-yl)-carbamic aciddydrogesterone-11-yl ester]	≥ 631				
CC(=O)c1cccc(NC(=O)OC2C[C@]3(C)[C@@H](C(C)=O)CC[C@H]3[C@@H]3C=CC4=CC(=O)CC[C@]4(C)[C@@H]23)c1 (some centres unmarked) [compound 81, (3-Acetyl-phenyl)-carbamic aciddydrogesterone-11-yl ester]					PS [100 nM] (% stimulation) ([1]; T47D cells): 1.0%; PI [100 nM] (% inhibition) ([1]; T47D cells): 72.0%; pIC50 ([1]; T47D cells): 7.3; Human PR binding (pKi) [2]: 6.6
CC(=O)[C@H]1CC[C@H]2[C@@H]3C=CC4=CC(=O)CC[C@@]4(C)[C@@H]3C(OC(=O)NCc3ccc4c(c3)OCO4)C[C@]12C (some centres unmarked) [compound 42, Benzo[1,3]dioxol-5-ylmethyl-carbamic acid dydrogesterone-11-yl ester]					PS [100 nM] (% stimulation) ([1]; T47D cells): 76.0%; pEC50 ([1]; agonistic potency, T47D cells): 7.0; PI [100 nM] (% inhibition) ([1]; T47D cells): 6.0%; Human PR binding (pKi) [2]: 6.8
CC(=O)[C@H]1CC[C@H]2[C@@H]3C=CC4=CC(=O)CC[C@@]4(C)[C@@H]3[C@@H](OC(=O)Nc3ccc4[nH]ccc4c3)C[C@]12C [compound 91, (1H-Indol-5-yl)-carbamic aciddydrogesterone-11-yl ester]	≥ 631	1	58	100	
CC(=O)[C@H]1CC[C@H]2[C@@H]3C=CC4=CC(=O)CC[C@@]4(C)[C@@H]3[C@@H](OC(=O)Nc3ccc(F)c(C#N)c3)C[C@]12C [compound 85, (3-Cyano-4-fluoro-phenyl)-carbamic acid dydrogesterone-11-yl ester]	501				
CC(=O)[C@H]1CC[C@H]2[C@@H]3C=CC4=CC(=O)CC[C@@]4(C)[C@@H]3[C@@H](OC(=O)Nc3ccc4c(c3)OCO4)C[C@]12C [Compound No. 13, Benzo[1,3]dioxol-5-yl-carbamic acid dydrogesterone-11β-yl ester]	≥ 631	5	73	31.6	EC50 [1]: 398 nM
COc1ccc(CNC(=O)O[C@H]2C[C@]3(C)[C@@H](C(C)=O)CC[C@H]3[C@@H]3C=CC4=CC(=O)CC[C@@]4(C)[C@@H]32)cc1 [compound 55, (4-Methoxy-benzyl)-carbamicacid dydrogesterone-11-yl ester]	100	143	-79		EC50 [1]: 50.1 nM
CC(=O)[C@H]1CC[C@H]2[C@@H]3C=CC4=CC(=O)CC[C@@]4(C)[C@@H]3[C@@H](OC(=O)Nc3ccc4c(c3)N(C)C(=O)CO4)C[C@]12C [compound 101, (4-Methyl-3-oxo-3,4-dihydro-2H-benzo[1,4]oxazin-6-yl)-carbamic acid dydrogesterone-11-yl ester]	316	0	72	79.4	
CC(=O)[C@H]1CC[C@H]2[C@@H]3C=CC4=CC(=O)CC[C@@]4(C)[C@@H]3[C@@H](OC(=O)Nc3ccc4cn[nH]c4c3)C[C@]12C [compound 41, (1H-Indazol-6-yl)-carbamic aciddydrogesterone-11-yl ester]	316	1	96	6.31	
CCO[C@]1(C(C)=O)CC[C@H]2[C@@H]3C=CC4=CC(=O)C5CC5[C@@]4(C)[C@@H]3[C@@H](OC(=O)Nc3cccc(OC)c3)C[C@@]21C (some centres unmarked) [Compound No. 29]	398	0	87	5.01	
CCO[C@]1(C(C)=O)CC[C@H]2[C@@H]3C=CC4=CC(=O)CC[C@@]4(C)[C@@H]3[C@@H](OC(=O)Nc3ccc4c(c3)OCO4)C[C@@]21C [Compound No. 34, Benzo[1,3]-dioxol-5-yl-carbamic acid 17-ethoxy-dydrogesterone-11β-yl este]	126	95	5		
COc1ccccc1N1CCN(C(=O)O[C@H]2C[C@]3(C)[C@@H](C(C)=O)CC[C@H]3[C@@H]3C=CC4=CC(=O)CC[C@@]4(C)[C@@H]32)CC1 [compound 43, 4-(2-Methoxy-phenyl)-piperazine-1-carboxylic aciddydrogesterone-11-yl ester]	≥ 631				
CC(=O)[C@H]1CC[C@H]2[C@@H]3C=CC4=CC(=O)CC[C@@]4(C)[C@@H]3[C@@H](OC(=O)Nc3cnc4ccccc4c3)C[C@]12C [compound 51, Quinolin-3-yl-carbamic aciddydrogesterone-11-yl ester]	398	5	59	100	
CC(=O)[C@H]1CC[C@H]2[C@@H]3C=CC4=CC(=O)CC[C@@]4(C)[C@@H]3[C@@H](OC(=O)Nc3cccc(C#N)c3)C[C@]12C [compound 71, (3-Cyano-phenyl)-carbamic aciddydrogesterone-11-yl ester]	≥ 631				
CC(=O)[C@H]1CC[C@H]2[C@@H]3C=CC4=CC(=O)CC[C@@]4(C)[C@@H]3C(OC(=O)Nc3ccc4cnn(C)c4c3)C[C@]12C (some centres unmarked) [compound 99, (1-Methyl-1H-indazol-6-yl)-carbamic acid dydrogesterone-11-yl ester]					PS [100 nM] (% stimulation) ([1]; T47D cells): 0.0%; PI [100 nM] (% inhibition) ([1]; T47D cells): 70.0%; pIC50 ([1]; T47D cells): 7.1; Human PR binding (pKi) [2]: 6.3
CC(=O)[C@H]1CC[C@H]2[C@@H]3C=CC4=CC(=O)CC[C@@]4(C)[C@@H]3[C@@H](OC(=O)NCc3ccc(S(C)(=O)=O)cc3)C[C@]12C [compound 67, (4-Methanesulfonyl-benzyl)-carbamic acid dydrogesterone-11-yl ester]	≥ 631				
CC(=O)[C@H]1CC[C@H]2[C@@H]3C=CC4=CC(=O)CC[C@@]4(C)[C@@H]3[C@@H](OC(=O)Nc3cccc(OC(F)(F)F)c3)C[C@]12C [compound 63, (3-Trifluoromethoxy-phenyl)-carbamic acid dydrogesterone-11-yl ester]	≥ 631				
CC(=O)[C@H]1CC[C@H]2[C@@H]3C=CC4=CC(=O)CC[C@@]4(C)[C@@H]3[C@@H](OC(=O)Nc3cccc(/C=N/O)c3)C[C@]12C [Compound No. 32, [3-(Hydroxyimino-methyl)-phenyl]-carbamic acid dydrogesterone-11-yl ester]	316				
